Common to all, as to test: Post-emergence efficacy, glasshouse, evaluated after 13 days
Format in all cases: in vivo

One experiment relates to Setaria faberi (SETFA). The conditions noted are these: Setaria faberi, 312 h; post-emergence application, 500 g/Ha, evaluated after 13 days; read-out: Control of weed species SETFA (100=total damage to plant; 0=no damage to plant). The method in brief: (§1)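 Plants grown 14 days in pots of standard soil in a glasshouse (24/16 °C day/night, 14 h light, 65% humidity), then sprayed post-emergence with compound formulated in acetone and IF50 and diluted in 0.25% or 1% Empicol ESC70 + 1% ammonium sulphate. Damage scored after 13 days, 0–100 (100 = total damage).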

Experiment [1] relates to Ipomoea hederacea (IPOHE). The note with it: Ipomoea hederacea, 312 h; post-emergence application, 500 g/Ha, evaluated after 13 days; read-out: Control of weed species IPOHE (100=total damage to plant; 0=no damage to plant). The method in brief: as §1
Another experiment has as its system Lolium perenne (LOLPE). The note with it: Lolium perenne, 312 h; post-emergence application, 500 g/Ha, evaluated after 13 days; read-out: Control of weed species LOLPE (100=total damage to plant; 0=no damage to plant). The gist of the method:
as §1

Experiment [2] concerns Chenopodium album (CHEAL). The note with it: Chenopodium album, 312 h; post-emergence application, 500 g/Ha, evaluated after 13 days; read-out: Control of weed species CHEAL (100=total damage to plant; 0=no damage to plant). The method in brief:
as §1

The test system of experiment [3] is Amaranthus palmeri (AMAPA). The note with it: Amaranthus palmeri, 312 h; post-emergence application, 500 g/Ha, evaluated after 13 days; read-out: Control of weed species AMAPA (100=total damage to plant; 0=no damage to plant). The gist of the method: as §1
For experiment [4], the system named is Euphorbia heterophylla (EPHHL). The note with it: Euphorbia heterophylla, 312 h; post-emergence application, 500 g/Ha, evaluated after 13 days; read-out: Control of weed species EPHHL (100=total damage to plant; 0=no damage to plant). The method in brief:
as §1

Experiment [5] relates to Digitaria sanguinalis (DIGSA). The note with it: Digitaria sanguinalis, 312 h; post-emergence application, 500 g/Ha, evaluated after 13 days; read-out: Control of weed species DIGSA (100=total damage to plant; 0=no damage to plant). The method in brief: as §1
For experiment [6], the system named is Echinochloa crus-galli (ECHCG). The conditions noted are these: Echinochloa crus-galli, 312 h; post-emergence application, 500 g/Ha, evaluated after 13 days; read-out: Control of weed species ECHCG (100=total damage to plant; 0=no damage to plant). The method in brief: as §1
The test system of a further experiment is Eleusine indica (ELEIN). The note with it: Eleusine indica, 312 h; post-emergence application, 500 g/Ha, evaluated after 13 days; read-out: Control of weed species ELEIN (100=total damage to plant; 0=no damage to plant). The method in brief:
as §1

SMILES strings stand for the structures.

Take `C[S+]([O-])CCNC(=O)c1cc[n+](CCC(=O)O)nc1` (stereo not drawn) [Compound A103]: the pest or weed control at 500 g/ha in the experiment on Setaria faberi (SETFA) was 100%; in experiment [1], 50%; in the experiment on Lolium perenne (LOLPE), 40%; in experiment [2], 90%; in [3] it was 90%; in experiment [4] it was 50%. Further, the pest or weed control at 500 g/ha in [5] stood at 90%; in experiment [6], 80%; with Eleusine indica (ELEIN), 90%.
Take `C#CCNC(=O)c1cc[n+](CCS(=O)(=O)[O-])nc1` [Compound A16]: the pest or weed control at 500 g/ha in the experiment on Setaria faberi (SETFA) is 70%; in experiment [1], 80%; with Lolium perenne (LOLPE), 60%; in experiment [2], 90%; in [3], 100%; in [4], 80%. In addition, the pest or weed control at 500 g/ha turned out to be 70% in experiment [5], 90% in experiment [6] and 90% with Eleusine indica (ELEIN).
On to `CCNC(=O)c1cc[n+](CC(C)C(=O)O)nc1` (stereo not drawn) [Compound A60], for which the pest or weed control at 500 g/ha in the experiment with Setaria faberi (SETFA) turned out to be 100%; in experiment [1], 70%; with Lolium perenne (LOLPE), 100%; in experiment [2], 20%; in experiment [3], 100%; in experiment [4], 90%. In addition, the pest or weed control at 500 g/ha in experiment [5] came to 100%; in experiment [6], 60%; with Eleusine indica (ELEIN), 100%.
With `O=C(O)CC[n+]1ccc(C(=O)N2CCSCC2)cn1` [Compound A112], the pest or weed control at 500 g/ha amounted to 90% with Setaria faberi (SETFA); 50% in [1]; 30% in the experiment with Lolium perenne (LOLPE); 90% in experiment [2]; 100% in experiment [3]; 90% in [4]. Besides, the pest or weed control at 500 g/ha in experiment [5] was found to be 100%; in experiment [6], 40%; in the experiment with Eleusine indica (ELEIN) it was 70%.
For `CS(=O)(=O)CCNC(=O)c1cc[n+](CCNS(=O)(=O)[O-])nc1` [Compound A136], the pest or weed control at 500 g/ha in the experiment with Setaria faberi (SETFA) came out at 30%; in [1], 30%; with Lolium perenne (LOLPE), 70%; in experiment [2], 100%; in experiment [3], 0%; in [4], 60%. The pest or weed control at 500 g/ha is 100% in experiment [5], 50% in experiment [6] and 80% in the experiment on Eleusine indica (ELEIN).
Regarding `Cn1nccc1NC(=O)c1cc[n+](CCC(=O)O)nc1` [Compound A116], the pest or weed control at 500 g/ha in the experiment with Setaria faberi (SETFA) worked out at 40%; in experiment [1], 10%; in the experiment with Lolium perenne (LOLPE), 10%; in experiment [2] it was 20%; in [3], 40%; in [4], 50%. Also, the pest or weed control at 500 g/ha was determined as 60% in [5], 40% in experiment [6] and 40% in the experiment with Eleusine indica (ELEIN).
As for `CC(C)NC(=O)c1cc[n+](CCC(=O)[O-])nc1` [Compound A6], the pest or weed control at 500 g/ha in the experiment with Setaria faberi (SETFA) worked out at 90%; in experiment [1], 60%; in the experiment with Lolium perenne (LOLPE), 90%; in [2], 100%; in experiment [3], 100%; in experiment [4] it was 50%. The pest or weed control at 500 g/ha in experiment [5] is 90%; in experiment [6], 50%; in the experiment with Eleusine indica (ELEIN), 70%.
Regarding `COC(=O)CC[n+]1ccc(C(=O)Nc2nccs2)cn1` [Compound A42], the pest or weed control at 500 g/ha was found to be 10% in the experiment with Setaria faberi (SETFA); 10% in [1]; 10% in the experiment with Lolium perenne (LOLPE); 40% in experiment [2]; 20% in experiment [3]; 60% in experiment [4]. Further, the pest or weed control at 500 g/ha (in [5]; in experiment [6]; with Eleusine indica (ELEIN)) was 10% in each case.
`CC(C)N(C(=O)c1cc[n+](CCC(=O)O)nc1)C(C)C` [Compound A32]: the pest or weed control at 500 g/ha was determined as 30% in the experiment on Setaria faberi (SETFA); 10% in experiment [1]; 10% with Lolium perenne (LOLPE); 20% in experiment [2]; 50% in [3]; 40% in [4]. Besides, the pest or weed control at 500 g/ha in experiment [5] is 20%; in [6], 30%; in the experiment with Eleusine indica (ELEIN), 10%.
In the case of `CCNC(=O)c1cc[n+](CCC(=O)O)nc1` [Compound A43], the pest or weed control at 500 g/ha with Setaria faberi (SETFA) is 100%; in experiment [1], 70%; in the experiment on Lolium perenne (LOLPE) it was 50%; in experiment [2], 90%; in experiment [3], 100%; in experiment [4], 100%. For the same compound, the pest or weed control at 500 g/ha in [5] was 100%; in experiment [6], 60%; with Eleusine indica (ELEIN), 100%.
On to `N#CCCNC(=O)c1cc[n+](CCC(=O)O)nc1` [Compound A113], for which the pest or weed control at 500 g/ha in the experiment with Setaria faberi (SETFA) was determined as 100%; in experiment [1], 30%; in the experiment on Lolium perenne (LOLPE), 90%; in experiment [2], 80%; in [3], 100%; in experiment [4], 90%. Further, the pest or weed control at 500 g/ha in [5] was 100%; in experiment [6] it was 90%; with Eleusine indica (ELEIN), 100%.
`O=C(O)CC[n+]1ccc(C(=O)N2CCOCC2)cn1` [Compound A29]: the pest or weed control at 500 g/ha in the experiment on Setaria faberi (SETFA) was 90%; in experiment [1] it was 50%; in the experiment on Lolium perenne (LOLPE) it was 50%; in [2], 90%; in [3] it was 100%; in [4] it was 100%. The pest or weed control at 500 g/ha (in experiment [5]; in [6]; in the experiment with Eleusine indica (ELEIN)) was 90% each time.
In the case of `C#CCNC(=O)c1cc[n+](CCC(=O)O)nc1` [Compound A17], the pest or weed control at 500 g/ha was 90% in the experiment with Setaria faberi (SETFA); 100% in experiment [1]; 70% with Lolium perenne (LOLPE); 100% in experiment [2]; 100% in [3]; 90% in experiment [4]. In addition, the pest or weed control at 500 g/ha was found to be 100% in [5], 90% in experiment [6] and 100% in the experiment with Eleusine indica (ELEIN).
Regarding `Cn1ncnc1CCNC(=O)c1cc[n+](CCC(=O)O)nc1` [Compound A144], the pest or weed control at 500 g/ha came out at 90% with Setaria faberi (SETFA); 50% in experiment [1]; 60% with Lolium perenne (LOLPE); 100% in experiment [2]; 100% in experiment [3]; 90% in experiment [4]. Further, the pest or weed control at 500 g/ha in experiment [5] turned out to be 80%; in [6], 60%; in the experiment on Eleusine indica (ELEIN), 100%.
Take `CNC(=O)c1cc[n+](CCS(=O)(=O)[O-])nc1` [Compound A1, 2-[4-(methylcarbamoyl)pyridazin-1-ium-1-yl]ethanesulfonate]: the pest or weed control at 500 g/ha is 80% with Setaria faberi (SETFA); 60% in [1]; 80% in the experiment on Lolium perenne (LOLPE); 70% in experiment [2]; 100% in experiment [3]; 70% in experiment [4]. In addition, the results for the pest or weed control at 500 g/ha (in experiment [5]; in experiment [6]; with Eleusine indica (ELEIN)) were 90%, 60% and 70%, respectively.

The values are drawn from patent US20210403435A1, “HERBICIDAL COMPOUNDS” (SYNGENTA CROP PROTECTION AG, priority 2018, published 2021).
